Source: PubChem BioAssay (NCI)
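Following 48 hours of exposure in 96-well plates, responses at five concentrations were used to interpolate endpoints linearly. TGI marks complete inhibition of growth.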

Legend:
Test in all cases: growth of human tumour cells (NCI), 48 h
CAKI-1 renal = tested on: CAKI-1 renal
HCC-2998 colon = tested on: HCC-2998 colon
RXF 393 renal = tested on: RXF 393 renal
ACHN renal = tested on: ACHN renal
HOP-92 NSCLC = tested on: HOP-92 NSCLC
NCI-H460 lung = tested on: NCI-H460 lung
OVCAR-4 ovarian = tested on: OVCAR-4 ovarian
A498 renal = tested on: A498 renal
UACC-62 melanoma = tested on: UACC-62 melanoma
SK-MEL-28 melanoma = tested on: SK-MEL-28 melanoma
HT29 colon = tested on: HT29 colon
SN12C renal = tested on: SN12C renal
SK-OV-3 ovarian = tested on: SK-OV-3 ovarian
SW-620 colon = tested on: SW-620 colon
HCT-15 colon = tested on: HCT-15 colon
HS 578T breast = tested on: HS 578T breast
M14 melanoma = tested on: M14 melanoma
COLO 205 colon = tested on: COLO 205 colon
CCRF-CEM leukemia = tested on: CCRF-CEM leukemia
SF-268 CNS = tested on: SF-268 CNS
MOLT-4 leukemia = tested on: MOLT-4 leukemia
SNB-75 CNS = tested on: SNB-75 CNS
NCI-H23 lung = tested on: NCI-H23 lung
IGROV1 ovarian = tested on: IGROV1 ovarian
OVCAR-5 ovarian = tested on: OVCAR-5 ovarian
UACC-257 melanoma = tested on: UACC-257 melanoma
SNB-19 CNS = tested on: SNB-19 CNS
RPMI-8226 leukemia = tested on: RPMI-8226 leukemia
MDA-N = tested on: MDA-N
MDA-MB-231 breast = tested on: MDA-MB-231 breast
KM12 colon = tested on: KM12 colon
MCF7 breast = tested on: MCF7 breast
SK-MEL-2 melanoma = tested on: SK-MEL-2 melanoma
BT-549 breast = tested on: BT-549 breast
SR leukemia = tested on: SR leukemia
HOP-62 NSCLC = tested on: HOP-62 NSCLC
T-47D breast = tested on: T-47D breast
HCT-116 colon = tested on: HCT-116 colon
OVCAR-8 ovarian = tested on: OVCAR-8 ovarian
MALME-3M melanoma = tested on: MALME-3M melanoma
A549 NSCLC = tested on: A549 NSCLC
NCI/ADR-RES ovarian = tested on: NCI/ADR-RES ovarian
U251 CNS = tested on: U251 CNS
PC-3 prostate = tested on: PC-3 prostate
786-0 renal = tested on: 786-0 renal
OVCAR-3 ovarian = tested on: OVCAR-3 ovarian
NCI-H226 lung = tested on: NCI-H226 lung
SK-MEL-5 melanoma = tested on: SK-MEL-5 melanoma
NCI-H522 lung = tested on: NCI-H522 lung
DU-145 prostate = tested on: DU-145 prostate
EKVX NSCLC = tested on: EKVX NSCLC
K-562 leukemia = tested on: K-562 leukemia
HL-60(TB) leukemia = tested on: HL-60(TB) leukemia
MDA-MB-435 = tested on: MDA-MB-435
LOX IMVI melanoma = tested on: LOX IMVI melanoma
SF-295 CNS = tested on: SF-295 CNS
SF-539 CNS = tested on: SF-539 CNS
TK-10 renal = tested on: TK-10 renal

C=CCc1cccc2cc(C(=O)NC3CCCCC3)c(=N)oc12
TGI (CAKI-1 renal): 37.9 µM | TGI (HCC-2998 colon): 31.2 µM | TGI (RXF 393 renal): > 100 µM | TGI (ACHN renal): 35 µM | TGI (HOP-92 NSCLC): > 100 µM | TGI (NCI-H460 lung): 35.9 µM | TGI (OVCAR-4 ovarian): 63.1 µM | TGI (A498 renal): 52 µM | TGI (UACC-62 melanoma): 41.2 µM | TGI (SK-MEL-28 melanoma): 66.2 µM | TGI (HT29 colon): 57.7 µM | TGI (SN12C renal): 29.8 µM | TGI (SK-OV-3 ovarian): > 100 µM | TGI (SW-620 colon): > 100 µM | TGI (HCT-15 colon): 34.9 µM | TGI (HS 578T breast): 31.4 µM | TGI (M14 melanoma): 39.1 µM | TGI (COLO 205 colon): 33.5 µM | TGI (CCRF-CEM leukemia): > 100 µM | TGI (SF-268 CNS): 41.2 µM | TGI (MOLT-4 leukemia): > 100 µM | TGI (SNB-75 CNS): 35 µM | TGI (NCI-H23 lung): 51.8 µM | TGI (IGROV1 ovarian): > 100 µM | TGI (OVCAR-5 ovarian): 39 µM | TGI (UACC-257 melanoma): 78 µM | TGI (SNB-19 CNS): 72.8 µM | TGI (RPMI-8226 leukemia): > 100 µM | TGI (MDA-N): 47.3 µM | TGI (MDA-MB-231 breast): 35.9 µM | TGI (KM12 colon): 33 µM | TGI (MCF7 breast): > 100 µM | TGI (SK-MEL-2 melanoma): 16.1 µM | TGI (BT-549 breast): > 100 µM | TGI (SR leukemia): > 100 µM | TGI (HOP-62 NSCLC): 37.7 µM | TGI (T-47D breast): 52.8 µM | TGI (HCT-116 colon): 28.6 µM | TGI (OVCAR-8 ovarian): 57.8 µM | TGI (MALME-3M melanoma): > 100 µM | TGI (A549 NSCLC): > 100 µM | TGI (NCI/ADR-RES ovarian): > 100 µM | TGI (U251 CNS): > 100 µM | TGI (PC-3 prostate): 31.2 µM | TGI (786-0 renal): 31.2 µM | TGI (OVCAR-3 ovarian): 28.3 µM | TGI (NCI-H226 lung): 44.9 µM | TGI (SK-MEL-5 melanoma): 27.4 µM | TGI (NCI-H522 lung): > 100 µM | TGI (DU-145 prostate): 52.5 µM | TGI (EKVX NSCLC): > 100 µM | TGI (K-562 leukemia): > 100 µM | TGI (HL-60(TB) leukemia): > 100 µM | TGI (MDA-MB-435): 77.5 µM | TGI (LOX IMVI melanoma): 34 µM

O=c1oc2ccc(Cl)cc2c2ccccc12
TGI (CAKI-1 renal): > 100 µM | TGI (HCC-2998 colon): > 100 µM | TGI (RXF 393 renal): 58.9 µM | TGI (ACHN renal): > 100 µM | TGI (HOP-92 NSCLC): 93.5 µM | TGI (NCI-H460 lung): > 100 µM | TGI (OVCAR-4 ovarian): > 100 µM | TGI (A498 renal): > 100 µM | TGI (UACC-62 melanoma): > 100 µM | TGI (SF-295 CNS): > 100 µM | TGI (SK-MEL-28 melanoma): > 100 µM | TGI (HT29 colon): > 100 µM | TGI (SN12C renal): > 100 µM | TGI (SW-620 colon): > 100 µM | TGI (HCT-15 colon): > 100 µM | TGI (HS 578T breast): 77.2 µM | TGI (M14 melanoma): > 100 µM | TGI (COLO 205 colon): > 100 µM | TGI (SF-539 CNS): > 100 µM | TGI (CCRF-CEM leukemia): > 100 µM | TGI (SF-268 CNS): 50.5 µM | TGI (MOLT-4 leukemia): > 100 µM | TGI (SNB-75 CNS): 97.4 µM | TGI (NCI-H23 lung): 58.2 µM | TGI (IGROV1 ovarian): > 100 µM | TGI (OVCAR-5 ovarian): > 100 µM | TGI (UACC-257 melanoma): > 100 µM | TGI (SNB-19 CNS): 45.1 µM | TGI (RPMI-8226 leukemia): > 100 µM | TGI (MDA-N): > 100 µM | TGI (MDA-MB-231 breast): 41.2 µM | TGI (MCF7 breast): > 100 µM | TGI (TK-10 renal): > 100 µM | TGI (SK-MEL-2 melanoma): 50.9 µM | TGI (BT-549 breast): 37 µM | TGI (SR leukemia): > 100 µM | TGI (HOP-62 NSCLC): 45.1 µM | TGI (T-47D breast): > 100 µM | TGI (HCT-116 colon): > 100 µM | TGI (OVCAR-8 ovarian): > 100 µM | TGI (MALME-3M melanoma): > 100 µM | TGI (A549 NSCLC): > 100 µM | TGI (NCI/ADR-RES ovarian): > 100 µM | TGI (U251 CNS): 33.7 µM | TGI (PC-3 prostate): > 100 µM | TGI (786-0 renal): > 100 µM | TGI (OVCAR-3 ovarian): > 100 µM | TGI (NCI-H226 lung): > 100 µM | TGI (SK-MEL-5 melanoma): > 100 µM | TGI (NCI-H522 lung): > 100 µM | TGI (DU-145 prostate): > 100 µM | TGI (EKVX NSCLC): > 100 µM | TGI (K-562 leukemia): > 100 µM | TGI (HL-60(TB) leukemia): > 100 µM | TGI (MDA-MB-435): > 100 µM | TGI (LOX IMVI melanoma): > 100 µM
